Patent publication US7544814B2, “[3.2.0] Heterocyclic compounds and methods of using the same” (Nereus Pharmaceuticals, Inc., priority 2004, dated 2009)
Several values for one entry are separate records, joined by “and”; a condition that tells them apart may be missing. Equal values may be shown once. Read-outs that look alike come from different tables or passages of the source.

Assays:
[1] = system: PC-3; assay: Cell growth inhibition (resazurin), PC-3; assay type: cell-based, human
[2] = system: NF-κB; assay: NF-κB-mediated luciferase reporter gene assay, HEK293 NF-κB/Luc cells, TNF-α stimulation; assay type: cell-based, human; conditions: for effect on luciferase activity upon TNF-α stimulation, in words: pretreatment of NF-κB/Luc 293 cells
Description: The HEK293 NF-κB/luciferase reporter cell line is a derivative of the human embryonic kidney cell line (ATCC; CRL-1573) and carries a luciferase reporter gene under the regulation of 5× NF-κB binding sites. […] When performing the luciferase assay, the DMEM basal medium was replaced with phenol-red free DMEM basal medium and the G418 was omitted.
For NF-κB-mediated luciferase assays, HEK293 NF-κB/luciferase cells were seeded at 1.5×10^4 cells/well in 90 μl phenol-red free DMEM complete medium into Corning 3917 white opaque-bottom tissue culture plates. For Formula II-2, Formula II-4, Formula II-5A, and Formula II-18, a 400 μM starting dilution was made in 100% DMSO and this dilution was used to generate a 8-point half log dilution series. […] For Formula II-20, a 2.5 mM or 8 mM starting solution was made in 100% DMSO and the final test concentrations ranged from 6.3 μM to 2.0 nM or 20 μM to 6.3 nM, respectively. The plates were returned to the incubator for 1 hour. After 1 hr pretreatment, 10 μl of a 50 ng/ml TNF-α solution, prepared in the phenol-red free DMEM medium was added, and the plates were incubated for an additional 6 hr.
At the end of the TNF-α stimulation, 100 μl of Steady Lite HTS luciferase reagent (Packard Bioscience) was added to each well and the plates were left undisturbed for 10 min at room temperature before measuring the luciferase activity. The relative luciferase units (RLU) were measured by using a Fusion microplate fluorometer (Packard Bioscience).

[3] = target: T1, trypsin-like activity of purified rabbit muscle 20S proteasome (Oryctolagus cuniculus, UniProt G1SWK8); assay: biochemical
T1 sequence (G1SWK8 1-271): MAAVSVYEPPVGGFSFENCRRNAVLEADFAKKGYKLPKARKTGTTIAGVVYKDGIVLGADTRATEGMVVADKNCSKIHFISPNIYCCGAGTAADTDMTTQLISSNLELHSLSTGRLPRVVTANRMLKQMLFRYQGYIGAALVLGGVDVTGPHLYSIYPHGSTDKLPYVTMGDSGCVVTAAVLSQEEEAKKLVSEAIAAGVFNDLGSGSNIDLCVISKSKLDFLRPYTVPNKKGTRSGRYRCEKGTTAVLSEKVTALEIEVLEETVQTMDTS

[4] = system: U266; assay: Cell growth inhibition (resazurin), U266; conditions: for EC50: 48 hours drug exposure; for cytotoxicity against U266, in words: from EC50 values
[5] = system: HT-29; assay: Cell growth inhibition (resazurin), HT-29
[6] = system: OVCAR-3; assay: Cell growth inhibition (resazurin), OVCAR-3; conditions: for EC50: 48 hours drug exposure
[7] = system: B16-F10; assay: Cell growth inhibition (resazurin), B16-F10
[8] = system: NCI-H292; assay: Cell growth inhibition (resazurin), NCI-H292; conditions: for EC50: Homo sapiens, NCI-H292, 48 h
[9] = system: RPMI 8226; assay: Cell growth inhibition (resazurin), RPMI 8226; conditions: for cytotoxicity against RPMI 8226, in words: from EC50 values
[10] = system: MDA-MB-231; assay: Cell growth inhibition (resazurin), MDA-MB-231
[11] = target: T2, caspase-like activity of purified rabbit muscle 20S proteasome (Oryctolagus cuniculus, UniProt A0A5F9DQW2); assay: In vitro inhibition of 20S proteasome caspase-like activity (Z-LLE-AMC)
T2 sequence (A0A5F9DQW2 1-212): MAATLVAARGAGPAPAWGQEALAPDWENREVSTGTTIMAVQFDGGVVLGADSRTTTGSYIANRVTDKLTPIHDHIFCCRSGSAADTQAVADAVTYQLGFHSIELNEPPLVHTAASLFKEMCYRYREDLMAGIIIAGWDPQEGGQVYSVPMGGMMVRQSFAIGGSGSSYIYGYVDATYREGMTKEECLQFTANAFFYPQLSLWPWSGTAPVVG

[12] = target: T1, trypsin-like activity of purified rabbit muscle 20S proteasome; assay: In vitro inhibition of 20S proteasome trypsin-like activity (Boc-LRR-AMC)
[13] = target: T3, chymotrypsin-like activity of purified rabbit muscle 20S proteasome (Oryctolagus cuniculus, UniProt G1T4Q9); assay: In vitro inhibition of 20S proteasome chymotrypsin-like activity (suc-LLVY-AMC)
T3 sequence (G1T4Q9 1-263): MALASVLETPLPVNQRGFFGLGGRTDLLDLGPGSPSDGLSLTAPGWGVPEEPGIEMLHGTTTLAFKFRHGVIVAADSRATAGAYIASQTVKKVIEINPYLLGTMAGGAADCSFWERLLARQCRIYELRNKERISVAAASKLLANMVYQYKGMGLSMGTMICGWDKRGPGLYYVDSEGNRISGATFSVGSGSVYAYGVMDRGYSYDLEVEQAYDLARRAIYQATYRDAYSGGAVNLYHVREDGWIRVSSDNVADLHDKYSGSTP

[14] = Homo sapiens, U-266, 48 h, read-out: U266 EC50, Table 2
[15] = Homo sapiens, RPMI-8226, 48 h, read-out: RPMI 8226 EC50, Table 2, 48 hours drug exposure, mean ± SD where n≥3
[16] = read-out: RPMI 8226 EC50, Table 2, 48 hours drug exposure, mean ± SD where n≥3
[17] = EC50 Caspase-like, Table 6, values in nM
[18] = EC50 values, caspase-like activity, summary of Table 6
[19] = EC50 Chymotrypsin-like, Table 6, values in nM
[20] = EC50 Caspase-like, Table 6, values in μM
[21] = EC50 values, chymotrypsin-like activity, summary of Table 6
[22] = Homo sapiens, HEK293, read-out: EC50, NF-κB-mediated luciferase reporter gene assay, Table 5, values in μM, 1 hr pretreatment, TNF-α 6 hr

`C[C@@]12OC(=O)[C@]1(C(O)[C@@H]1C=CCCC1)NC(=O)[C@@H]2CCI` (single isomer, unassigned) [Formula II-19] was tested, and the EC50 ([1]; Homo sapiens, PC-3, 48 h, Table 1, 48 hours drug exposure, mean ± SD where n≥3, read-out: EC50 against PC-3) was 0.029 ± 0.004 µM, the “cytotoxicity against PC-3, in words” value ([1]; from EC50 values) was “cytotoxic” and the EC50 ([2]; Homo sapiens, HEK293, read-out: EC50, NF-κB-mediated luciferase reporter gene assay, Table 5, values in nM, 1 hr pretreatment, TNF-α 6 hr) was 7 nM. The EC50 ([2]; Homo sapiens, HEK293, read-out: NF-κB EC50, Table 12) was 10 nM, the “effect on luciferase activity upon TNF-α stimulation, in words” value (shortened to “effect”) [2] was “dose-dependent decrease” and the EC50 [3] was 0.013 µM and 0.015 µM. For the same compound, the EC50 ([4]; Homo sapiens, U-266, 48 h, read-out: EC50 against U266, Table 1) was 0.0032 µM, the EC50 [4, 14] was 0.0032 µM and the “cytotoxicity against U266, in words” value [4] was “cytotoxic”. For the same compound, the EC50 ([4]; read-out: EC50 against U266, Table 1) was 0.0034 µM, the EC50 ([4]; read-out: U266 EC50, Table 2) was 0.0034 µM and the EC50 ([5]; Homo sapiens, HT-29, 48 h, read-out: EC50 against HT-29, Table 1, 48 hours drug exposure, mean ± SD where n≥3) was 0.011 ± 0.0016 µM. The “cytotoxicity against HT-29, in words” value ([5]; from EC50 values) was “cytotoxic”, the EC50 ([6]; Homo sapiens, OVCAR-3, 48 h, read-out: EC50 against OVCAR-3, Table 1) was 0.024 µM and the “cytotoxicity against OVCAR-3, in words” value ([6]; from EC50 values) was “cytotoxic”. For the same compound, the EC50 ([6]; read-out: EC50 against OVCAR-3, Table 1) was 0.02 µM, the EC50 ([7]; Mus musculus, B16-F10, 48 h, read-out: EC50 against B16-F10, Table 1, 48 hours drug exposure, mean ± SD where n≥3) was 0.013 ± 0.0019 µM and the “cytotoxicity against B16-F10, in words” value ([7]; from EC50 values) was “cytotoxic”. For the same compound, the EC50 ([8]; read-out: EC50 against NCI-H292, Table 1, 48 hours drug exposure, mean ± SD where n≥3) was 0.027 ± 0.0038 µM, the “cytotoxicity against NCI-H292, in words” value ([8]; from EC50 values) was “cytotoxic” and the EC50 ([9]; Homo sapiens, RPMI-8226, 48 h, read-out: EC50 against RPMI 8226, Table 1, 48 hours drug exposure) was 0.0059 µM. For the same compound, the EC50 [9, 15] was 0.0059 µM, the EC50 ([9]; Homo sapiens, RPMI-8226, read-out: Cytotoxicity RPMI EC50, Table 12) was 0.006 µM and the “cytotoxicity against RPMI 8226, in words” value [9] was “cytotoxic”. The EC50 ([9]; read-out: Cytotoxicity RPMI EC50, Table 12) was 0.007 µM, the EC50 ([9]; read-out: EC50 against RPMI 8226, Table 1, 48 hours drug exposure) was 0.0071 µM and the EC50 [9, 16] was 0.0071 µM. For the same compound, the EC50 ([10]; Homo sapiens, MDA-MB-231, 48 h, read-out: EC50 against MDA-MB-231, Table 1, 48 hours drug exposure, mean ± SD where n≥3) was 0.014 ± 0.0032 µM, the “cytotoxicity against MDA-MB-231, in words” value ([10]; from EC50 values) was “cytotoxic” and the EC50 [11, 17] was 573 nM and 739 nM. The EC50 [11, 18] was 213 to 850 nM, the EC50 ([11]; Proteasome Caspase-like EC50, Table 12) was 573 nM and 739 nM and the “inhibition of the trypsin-like activity of the 20S proteasome, in words” value (“inhibition” below) ([12]; under the conditions tested) was “able to inhibit”. The EC50 [13, 19] was 3 nM and the EC50 ([13]; Proteasome Chymotrypsin-like EC50, Table 12) was 3 nM.
For `CC[C@H]1C(=O)N[C@@]2([C@@H](O)C3CCCCC3)C(=O)O[C@@]12C` [Formula II-3], the EC50 [3] was 5.5 µM and 7.7 µM, the EC50 ([8]; read-out: EC50 against NCI-H292) was > 20 µM and the EC50 [9, 15] was > 20 µM. For the same compound, the EC50 [11, 20] was > 20000 nM, the “inhibition” value [12] was “able to inhibit” and the EC50 [13, 19] was 964 nM. The EC50 [13, 21] was 207 to 964 nM.
`C[C@@]12OC(=O)[C@]1([C@@H](O)[C@@H]1C=CCCC1)NC(=O)[C@@H]2CCN=[N+]=[N-]` [Formula II-29] was tested, and the EC50 [2, 22] was 1200 nM, the “effect” value [2] was “dose-dependent decrease” and the EC50 ([2]; read-out: EC50, NF-κB-mediated luciferase reporter gene assay, Table 5, values in μM, 1 hr pretreatment, TNF-α 6 hr) was 1400 nM. The EC50 [3] was 0.175 µM and 0.254 µM, the “cytotoxicity against U266, in words” value [4] was “cytotoxic” and the EC50 [9, 15] was 4.28 µM. The “cytotoxicity against RPMI 8226, in words” value [9] was “cytotoxic”, the EC50 [9, 16] was 6.94 µM and the EC50 [11, 17] was 535 nM and 520 nM. For the same compound, the EC50 [11, 18] was 213 to 850 nM, the “inhibition” value ([12]; under the conditions tested) was “able to inhibit” and the EC50 [13, 19] was 6 nM and 8 nM. For the same compound, the EC50 [13, 21] was 2 to 11 nM.
For `CCC[C@H]1C(=O)N[C@@]2([C@@H](O)[C@@H]3C=CCCC3)C(=O)O[C@@]12C` [Formula II-30], the EC50 [2, 22] was 2200 nM, the “effect” value [2] was “dose-dependent decrease” and the EC50 [3] was 0.905 µM and 1.2 µM. For the same compound, the EC50 [4, 14] was 0.889 µM, the “cytotoxicity against U266, in words” value [4] was “cytotoxic” and the EC50 ([4]; read-out: U266 EC50, Table 2) was 1.24 µM. The EC50 [9, 15] was 4.9 µM, the “cytotoxicity against RPMI 8226, in words” value [9] was “cytotoxic” and the EC50 [9, 16] was 4.16 µM. It also gave an EC50 [11, 17] of 956 nM, an EC50 [11, 20] of 1300 nM and an EC50 ([11]; EC50 values, caspase-like activity, range in mixed units, summary of Table 6, range from nM to μM) of 956 to 8700 nM. The “inhibition” value ([12]; under the conditions tested) was “able to inhibit”, the EC50 [13, 19] was 21 nM and the EC50 [13, 21] was 13 to 88 nM.
